Source: US10322115B2, “Amelioration of neural deficits associated with diabetes” (Neuralstem, Inc., priority 2016, dated 2019)

Experiments:
[1] = tested on: diabetic mice; assay: Paw thermal response latency (paw response to heat) in STZ Type I diabetes model; assay type: in vivo, Swiss Webster mice
Method: (§1) Adult female Swiss Webster mice (20-25 grams) were used in the study. They were maintained in a room at 65-82° F. and relative humidity of 30-70% illuminated with fluorescent lighting on a 12 hour light/dark cycle. The animals were maintained 2-3 per cage with free access to dry food and municipal water. Diabetes was induced following an overnight fast by injection of streptozotocin (STZ) (90 mg/kg ip in 0.9% sterile saline) on two consecutive days. Hyperglycemia was confirmed 4 days later in a sample of blood obtained by tail prick using a strip operated reflectance meter. Animals were observed daily and weighed weekly during the study period.
(§2) Test compounds were evaluated, with treatment begun immediately after onset of diabetes (Part A) or after 7-8 weeks of diabetes in Part B. Each group started with 10 animals per group to allow identification of differences in nerve conduction, paw thermal latency and intra-epidermal nerve fiber (IENF) density between control and diabetic mice, assuming the routinely observed 20-40% difference between groups and measurement coefficients of variation of 10-20%.
(§3) PART A (onset) • Control+vehicle • Diabetic+vehicle • Diabetic+insulin (by implanted pellet) • Diabetic+NSI-158 • Diabetic+NSI-189 • Diabetic+NSI-190
(§4) PART B (7-8 weeks) • Control+vehicle • Diabetic+vehicle • Diabetic+NSI-150 • Diabetic+NSI-182 • Diabetic+NSI-183 • Diabetic+NSI-189
(§5) Insulin was supplied by an implanted insulin pellet replaced monthly as needed (LinBit™, LinShin, Canada) and the test compounds were supplied by oral gavage. The following measurements were made 24 hours after delivery of test compound: • Body weight: Weekly from onset of diabetes; • Blood glucose: At onset of diabetes and monthly thereafter; • MNCV (large motor fiber function): Before onset of diabetes and monthly thereafter; • Paw tactile response threshold (large sensory fiber function) by manual von Frey filament: Monthly from onset of diabetes; • Paw thermal response latency (small sensory fiber): Monthly from onset of diabetes; • Corneal nerve density (small sensory fiber structure): Images were collected before onset of diabetes and monthly thereafter; • Barnes maze performance (learning and memory): After 10 weeks of diabetes and at study termination; and • Object recognition test (memory): After 10 weeks of diabetes and at study termination.
(§6) The various procedures set forth above are those described in the art as follows: • Jolivalt, C. G., et al., Exp. Neurol. (2010) 223:422-431; • Jolivalt, C. G., et al., Diabetes Obes. Metab. (2011) 13:990-1000; • Jolivalt, C. G., et al., Neuroscience (2012) 202:405-412; and • Chen, D. K., et al., J. Peripher. Nerv. Syst. (2013) 18:306-315.

[2] = tested on: diabetic mice; assay: Corneal nerve density (small fiber pathology) in STZ Type I diabetes model; assay type: in vivo, Swiss Webster mice
Method: as §1, §2, §3, §4, §5, §6

[3] = tested on: diabetic mice; assay: Paw tactile response threshold by manual von Frey filament (tactile allodynia) in STZ Type I diabetes model; assay type: in vivo, Swiss Webster mice
Method: as §1, §2, §3, §4, §5, §6

[4] = tested on: diabetic mice; assay: Nerve density in the sub-epidermal nerve plexus in STZ Type I diabetes model; assay type: in vivo, Swiss Webster mice
Method: as §1, §2, §3, §4, §5, §6

[5] = tested on: diabetic mice; assay: MNCV (large motor fiber function) in STZ Type I diabetes model; assay type: in vivo, Swiss Webster mice
Method: as §1, §2, §3, §4, §5, §6

[6] = tested on: diabetic mice; assay: Barnes maze test (learning and memory) in STZ Type I diabetes model; assay type: in vivo, Swiss Webster mice; details: for Barnes maze long-term retention / Barnes maze other parameters (initial acquisition, reinforced learning, short-term retention): Part A (treatment from onset)
Method: as §1, §2, §3, §4, §5, §6

[7] = tested on: diabetic mice; assay: IENF density in isolated paw skin tissue in STZ Type I diabetes model; assay type: in vivo, Swiss Webster mice
Method: as §1, §2, §3, §4
Paw skin tissue was evaluated for IENF density in some cases.
as §6

[8] = tested on: db/db (BKS.Cg-Dock7^m+/+Lepr^db/J) mice; assay: MNCV in Type II diabetes model; assay type: in vivo; details: after 17-22 weeks of treatment
From the text: (§7) Type II diabetes was modeled by db/db (BKS.Cg-Dock7^m+/+Lepr^db/J) mice. These mice were maintained in a manner similar to that set forth in Example 1.

[9] = tested on: db/db (BKS.Cg-Dock7^m+/+Lepr^db/J) mice; assay: Tactile allodynia in Type II diabetes model; assay type: in vivo; details: after 17-22 weeks of treatment
From the text: as §7

[10] = tested on: db/db (BKS.Cg-Dock7^m+/+Lepr^db/J) mice; assay: Thermal hypoalgesia in Type II diabetes model; assay type: in vivo; details: after 17-22 weeks of treatment
From the text: as §7

[11] = tested on: diabetic mice; assay: Object recognition test (memory) in STZ Type I diabetes model; assay type: in vivo, Swiss Webster mice; details: Part A (treatment from onset), weeks 10 and 16
Method: as §1, §2, §3
PART B (7-8 weeks) • Control+vehicle • Diabetic+vehicle • Diabetic+NSI-150 • Diabetic+NSI-182 • Diabetic+NSI-183 • Diabetic+NSI-189 […]

[12] = tested on: diabetic mice; assay: Systemic indices of diabetes (body weight, blood glucose, HbA1c) in STZ Type I diabetes model; assay type: in vivo, Swiss Webster mice; details: Part A, treatment from the outset
Method: as §1, §2, §3, §4
Insulin was supplied by an implanted insulin pellet replaced monthly as needed (LinBit™, LinShin, Canada) and the test compounds were supplied by oral gavage. […]

[13] = Part B (treatment after 7-8 weeks of diabetes)
[14] = Part A (treatment from onset of diabetes), end of study period
[15] = Part A (treatment from onset), distal regions of small sensory fibers
[16] = Part A (treatment from onset), measured 24 hours after the last treatment
[17] = Part A (treatment from onset), more proximal regions

Row | Compound | paw thermal hypoalgesia [1, 13] | loss of corneal nerve density in the stroma [2, 13] | paw tactile allodynia [3, 13] | reduction of nerve density in the sub-epidermal nerve plexus ([4]; Part A (treatment from onset)) | MNCV slowing [5, 14] | Barnes maze long-term retention [6] | Barnes maze other parameters (initial acquisition, reinforced learning, short-term retention) [6] | paw thermal hypoalgesia ([1]; Part A (treatment from onset)) | reduction of IENF density in isolated tissue ([7]; Part A (treatment from onset)) | loss of corneal nerve density in Bowman's layer [2, 15] | paw tactile allodynia [3, 16] | loss of corneal nerve density in Bowman's layer [2, 13] | loss of corneal nerve density in the stroma [2, 17] | also measured
1 | C=CCNC(=O)c1cccnc1NCc1ccccc1OC [NSI-150] | did not | no protective effect | did not |  |  |  |  |  |  |  |  |  |  | 
2 | NC(=O)C1CCCN1C(=O)c1cccnc1NCC1CCCCC1 (centres unmarked) [NSI-158] |  |  |  | attenuated | mild attenuation of MNCV slowing | improved long-term retention | without altering the other parameters | prevented paw thermal hypoalgesia | attenuated | no protective effect | attenuated tactile allodynia |  |  | 
3 | O=C(NCc1nc2ccccn2c1NCC1CCCO1)Oc1ccccc1 (centres unmarked) [NSI-182] | did not | no protective effect | did not |  |  |  |  |  |  |  |  | protective |  | 
4 | O=C(COc1ccccc1)NCc1nc2ccccn2c1NCC1CCCO1 (centres unmarked) [NSI-183] | did not | no protective effect | did not |  |  |  |  |  |  |  |  | protective |  | 
5 | CC(C)CCNc1ncccc1C(=O)N1CCN(Cc2ccccc2)CC1 [NSI-189] | prevented progression of paw thermal hypoalgesia | protective | partially reversed paw tactile allodynia | attenuated | mild attenuation of MNCV slowing | improved long-term retention | without altering the other parameters | prevented paw thermal hypoalgesia | attenuated | attenuated the loss | attenuated tactile allodynia | protective | attenuated this loss | reduction of nerve density in the sub-epidermal nerve plexus [4, 13]: protective; progressive development of MNCV slowing [8]: significantly reversed; progressive development of tactile allodynia [9]: significantly reversed; MNCV slowing [5, 13]: partially reversed MNCV slowing; progressive development of thermal hypoalgesia [10]: significantly reversed; reduction of IENF density in isolated tissue [7, 13]: reversed
6 | CCN(CCNC(=O)c1cccnc1NCCC(C)C)Cc1cccnc1 [NSI-190] |  |  |  | attenuated | mild attenuation of MNCV slowing | improved long-term retention | without altering the other parameters | prevented paw thermal hypoalgesia |  | no protective effect | attenuated tactile allodynia |  | attenuated this loss | object recognition: impaired short-term memory [11]: prevented this memory loss
7 | insulin [reference compound] |  |  |  | prevented | prevented |  |  | prevents this | prevented | prevented | attenuated |  | prevented | Barnes maze impairments (initial acquisition and long-term retention) ([6]; Part A, insulin pellet): prevented all of this; object recognition: impaired short-term memory [11]: not prevented; hyperglycemia [12]: reduced hyperglycemia; weight gain [12]: partially restored weight gain; HbA1c levels ([12]; terminal): reduced HbA1c levels
